Legend:
Format in all cases: cell-based, Human
HeLa cells [1] = experiment: GFP-NLS transduction in the presence or absence of Cas9-RNP complex, flow cytometry
Description: (§1) HeLa cells were plated (20 000 cells/well) in a 96 well-plate the day prior to the experiment in DMEM containing 10% FBS. A mix was prepared containing a synthetic peptide shuttle agent (10-30 μM), the GFP-NLS (10 μM) with or without a Cas9-NLS recombinant protein (2.5 μM) complexed with a crRNA/tracrRNA (2 μM) targeting the beta-2 microglobulin (B2M) gene and completed to 50 μL with PBS. Cells were washed once with PBS and the shuttle/GFP-NLS/Cas9-RNP mix was added to the cells and incubated for one minute. Then 100 μL DMEM containing 10% FBS was added to the mix. Cells were then immediately washed once with PBS and incubated in DMEM containing 10% FBS for two hours. Cells were the analyzed by flow cytometry.
To better understand the inhibitory effect of Cas9-RNP on shuttle agent transduction activity, HeLa cells were incubated with different peptides/shuttle agents and GFP cargo, in the presence or absence of Cas9-RNP, and delivery of GFP was assessed by flow cytometry, as described in Example 1. […] For some shuttle agents, the effect was particularly striking. For example, the GFP transduction efficiency for FSD268 decreased from 92% to 29%, the GFP transduction efficiency for FSD250 decreased from 83% to 13%, the GFP transduction efficiency for FSD10 decreased from 76% to 22%, and the GFP transduction efficiency for FSD395 decreased from 91% to 17%. […] Structure-activity relationships were explored further by repeating the above transduction experiments with shuttle agent variants sharing the same “core” amphipathic cationic alpha helical region as FSD10-15 (FIG. 4A), CM18 (FIG. 4B), and FSD356 (FIG. 4C).

CFF-16HBEge cells [2] = experiment: GFP transduction in the presence or absence of Cas9-RNP in CFF-16HBEge cells
Description: as §1
The above transduction experiments were repeated with FSD10 and FSD375 in a Human Bronchial Epithelial cell line model of cystic fibrosis, CFF-16HBEge.

CFF-16HBEge cells [3] = experiment: Cas9-RNP delivery, B2M genome editing; settings: B2M knockout, versus non-treated negative control
Description: HeLa cells were plated (10 000 cells/well) in a 96 well-plate the day prior to the experiment in DMEM containing 10% FBS. CFF-16HBEge cells were plated (10 000 cells/well) in a 96 well-plate the day prior to the experiment in Alpha-MEM containing 10% FBS.
(§2) For Cas9-RNP or ABE-Cas9-RNP transduction, a mix of Cas9-NLS or ABE-Cas9 recombinant protein (2.5 μM) complexed with a crRNA/tracrRNA (2 μM) targeting the beta-2 microglobulin (B2M) gene were co-incubated with 10-20 μM of synthetic peptide shuttle agent in a final volume of 50 μL completed with PBS. Cells were washed once with PBS and the shuttle/Cas9-RNP complex was added to the cells for and incubated for 60 to 90 seconds. Then 100 μL of DMEM (HeLa) or Alpha-MEM (CFF-16HBEge) containing 10% FBS was added to the mix. Cells were then immediately washed once with PBS and incubated in DMEM (HeLa) or Alpha-MEM (CFF-16HBEge) containing 10% FBS.
Genome editing events resulting in the absence of B2M protein (knockout) at the cell surface were determined by flow cytometry 6 days post-transduction. Cells were washed once with PBS and incubated with the anti-B2 microglobulin antibody (PE conjugated) (0.5 μL of anti-B2M-PE in […] 0.5% BSA/PBS) for 45 minutes at room temperature. Cells were washed twice with PBS and detached with 50 µL of Trypsin-EDTA for 10 minutes at 37° C. then inactivated by adding 100 μL of media containing 10% FBS. The percentage of knockout cells (cells without B2M antibody signal) was determined by flow cytometry.
A similar genome editing experiment as in Example 6 was performed in the Human Bronchial Epithelial cell line model of cystic fibrosis, CFF-16HBEge.
(§3) Further transduction experiments in CFF-16HBEge cells were performed to compare the ability of shuttle agents to deliver functional Cas9-RNP genome editing versus ABE-Cas9-RNP base editing complexes. Variants of the shuttle agent FSD10 (FIG. 8A) were tested in parallel, and genome editing/base editing results as evaluated by next-generation sequencing (NGS) are shown in FIGS. 8B and 8C for Cas9-RNP and ABE-Cas9-RNP, respectively.

CFF-16HBEge cells [4] = experiment: ABE-Cas9-RNP delivery, base editing evaluated by next-generation sequencing; settings: NGS
Description: as §2, §3

HeLa cells [5] = experiment: Large-scale screening for propidium iodide (PI) transduction activity, flow cytometry; settings: data not shown
Description: HeLa cells were plated (20 000 cells/well) in a 96 well-plate the day prior to the experiment in DMEM containing 10% FBS. Each delivery mix comprising a synthetic peptide shuttle agent (10-30 μM) and the propidium iodide (PI) (10 μg/mL) were prepared and completed to 50 μL with PBS. Cells were washed once with PBS and the shuttle/PI mix was added to the cells and incubated for one minute. Then 100 μL DMEM containing 10% FBS was added to the mix. Cells were then immediately washed once with PBS and incubated in DMEM containing 10% FBS for two hours. Cells were then analyzed by flow cytometry. […]
Due to the large number of peptides screened, negative controls were performed in parallel for each experimental batch and included a “no treatment” (NT) control in which the cells were not exposed to shuttle peptide or cargo, as well as a “cargo alone” control in which cells were exposed to the cargo in the absence of shuttle agent. […] Mean PI or GFP-NLS delivery score was calculated by multiplying the mean fluorescence intensity (of at least duplicate samples) measured for the viable PI+ or GFP+ cells by the mean percentage of viable PI+ or GFP+ cells, divided by 100,000 for GFP delivery or by 10,000 for PI delivery. […]

| Substance | GFP transduction activity relative to FSD10-15 (HeLa cells [1]; FIG. 4A) | resistance/sensitivity of GFP transduction to inhibition by Cas9-RNP (HeLa cells [1]; presence vs absence of Cas9-RNP) | resistance to Cas9-RNP inhibition of GFP transduction (CFF-16HBEge cells [2]) | genome editing with Cas9-RNP as cargo (CFF-16HBEge cells [3]) | base editing efficiency (ABE-Cas9-RNP) (CFF-16HBEge cells [4]) | PI transduction efficiency relative to cargo alone negative control (HeLa cells [5]) |
| --- | --- | --- | --- | --- | --- | --- |
| FSD375: FSD10-15 with flanking glycine/serine-rich residues (GGSGGGSKWKLARAFARAIKKLGGSGGGS; FSD375) | improving GFP transduction activity over FSD10-15 | retained the peptide's resistance to Cas9-RNP | greater resistance to Cas9-RNP inhibition than FSD10 | significant genome editing | about 15% | – |
| FSD174 Scramble: negative control peptide known to have low or no GFP transduction activity (LGRSGRIKIGGWSALASRARQARGLKIWTQGRL; FSD174 Scramble) | – | – | – | – | – | lower transduction efficiencies for PI |
